What was measured:
rat lung tissue = assay: Expression profiling of rat lung tissue RNA (Rat Chip II, Affymetrix); format: in vivo; settings: compared to normoxia; GCRMA normalization, SAM (δ>0.639, minimum fold change>1.7)
Description: To study potential mechanisms of sorafenib effects on PH RNA was isolated from rat lung tissue and analyzed using the Rat Chip II (Affymetrix). […] Mechanisms of PAH pathobiology is poorly understood therefore, to explore potential mechanistic pathways the inventors conducted bioinformatic studies and expression profiling. […] The candidate genes identified fell into various gene ontology classes, for example 4% were in the lung development and growth factors class (e.g., Bambi, Tgfb3, Ltbp2), 13% in the cell migration/ECM class (e.g., Itga3_predicted, Cspg4, Cxcll2, Reln, Col18a1, Cthrc1, Hmgcr, Cnn1, Col6a2, Jag2), 4% in the apoptosis class (e.g., Anzal, Col18a1, Jag2), 4% in the smooth muscle/fiber formation class (e.g., Des, Tpm3, Jph2), 10% in the cell proliferation class (e.g., Anxal, Timp1, Lamb—1 predicted, Cspg4, Cxcll2, Gja4, Jag2, Tgfb3), 6% in the blood vessel development class (e.g., Cxcll2, Cspg4, Gja4, Col18a1, Serpine1), and 5% in the angiogenesis class (Cxcl12, Cspg4, Col18a1, Serpine1).

rat lung vasculature = assay: Rat lung histopathology (H&E sections, Heath-Edwards grading); format: in vivo; settings: Dahl SS rats, Hypoxia+SU5416+Sorafenib vs Hypoxia+SU5416, H/E sections
Experimental: The Heath-Edwards grading system grades pulmonary hypertension by microscopic features. The general classification is as follows:
Protocol includes an initial administration of SU5416 subcutaneously at 20 mg/kg followed daily by sorenfenib oral daily doses of 2.5 mg/kg. Some animals were exposed to chronic hypoxia (10% O2). The animals were divided into five experimental groups: hypoxia+sorafenib; hypoxia+SU5416+sorafenib, normoxia+vehicle control; Hypoxia+vehicle; and hypoxia+SU5416. PAP, RVSP, Echo, and DNA microarrays were used to measure various physiological and molecular biological parameters. FIG. 4 illustrates that hypoxia/SU5416-induces increases in right heart pressures and right heart hypertrophy (RV/LV+Septum).

[1] = tested on: hypoxia-induced model of pulmonary hypertension in Dahl SS rats; assay: Echocardiography in hypoxia/SU5416 model of pulmonary hypertension; format: in vivo, rat; design: CO (PA): unit not given beside the values; RVAW / LVPW / CO (Ao) / MPA: unit not given here; settings: echocardiogram
Experimental: As part of the spectrum of sorafenib's pharmacologic activity overlaps with SU5416, a study was performed to determine whether sorafenib had similar effects or with additional mechanisms of inhibitory activity could counteract the effects of SU5416. […] Echocardiograms were performed on all rats at the start of the study. Except for the normoxia group, all rats were maintained in a hypoxia chamber with a partial pressure of oxygen of 10% FiO2 for the duration of the study. Rats in the two SU5416 groups received one subcutaneous injection of SU5416 at the start of the study (20 mg/kg). Stock sorafenib solutions were prepared every three days, crushing and dissolving sorafenib tablets in EL/ethanol (50:50; Sigma Cremophor EL, 95% ethyl alcohol) at final concentration of 4 mg/mL, protected from light exposure and stored at room temperature. Final dosing solutions were prepared on the day of use by dilution of the stock solution to 1 mg/mL with water and administered by gavage to the rats daily. After 3 weeks, all rats had echocardiography and hemodynamic studies. Organ and blood specimens were obtained for further evaluation. […] RV 3DE measurements were also determined (diameters+area), A=RV major diameter, B=RV annulus diastolic diameter & area, C=RV at ⅓ RV major diameter & area, D=RV at ⅔ RV major diameter & area.
Echocardiograms were performed on all rats at the start of the experiment. Except for the normoxia group, all rats were maintained in a hypoxia chamber with a partial pressure of oxygen of 10% FiO2 for the duration of the experiment. Rats in the 2 SU5416 groups received one subcutaneous injection of SU5416 at the start of the experiment (20 mg/kg). Stock sorafenib solutions were prepared every three days, crushing and dissolving sorafenib tablets in EL/ethanol (50:50; Sigma Cremophor EL, 95% ethyl alcohol) at final concentration of 4 mg/mL, protected from light exposure and stored at room temperature. Final dosing solutions were prepared on the day of use by dilution of the stock solution to 1 mg/mL with water and administered by gavage to the rats daily. After 3 weeks, all rats had echocardiography and hemodynamic studies. Organ and blood specimens were obtained for further evaluation.

[2] = cited from earlier work
[3] = PRE (baseline at start of experiment)

## CNC(=O)c1cc(Oc2ccc(NC(=O)Nc3ccc(Cl)c(C(F)(F)F)c3)cc2)ccn1 [Sorafenib]
Rat lung tissue
  genes differentially regulated: at least 179 genes
Rat lung vasculature
  remodeling of the lung vasculature (histopathology, Heath-Edwards grading): Prevents Remodeling
Rat lung vasculature; listed as sorafenib
  remodeling of the lung vasculature (histopathology, Heath-Edwards grading): dramatic improvement
[1]; POST (after 3 weeks hypoxia)
  CI (Ao): 1.00 ± 0.80
  CI(PA): 0.82 ± 0.17
  CO (Ao): 326 ± 246
  CO (PA): 271 ± 48
  FS (%): 68 ± 20%
  LV Mass (gram): 1.30 ± 0.10 gram
  LVPW: 0.18 ± 0.03
  MPA: 0.38 ± 0.07
  PA PG (mmHg): 3.87 ± 0.95 mmHg
  TV max PG (mmHg): 4.85 ± 3.46 mmHg
[1]; [3]
  CI (Ao): 1.77 ± 1.30
  CI(PA): 1.70 ± 1.43
  CO (Ao): 577 ± 418
  CO (PA): 551 ± 467
  FS (%): 78 ± 5%
  LV Mass (gram): 1.60 ± 0.30 gram
  LVPW: 0.21 ± 0.03
  MPA: 0.48 ± 0.07
  PA PG (mmHg): 6.10 ± 5.52 mmHg
  RVAW: 0.11
[2]; known MTD, oral
  MTD: 400 mg twice daily
[2]; previous sorafenib studies
  drug interactions with warfarin or digoxin: have not demonstrated known drug interactions

Reference: patent publication US20090197922A1, “COMPOSITIONS AND METHODS FOR TREATING PULMONARY HYPERTENSION” (The University of Chicago, priority 2006, published 2009)
